PMC11033320, “Activation of p53 signaling and regression of breast and prostate carcinoma cells by spirooxindole-benzimidazole small molecules” (Frontiers in Pharmacology, 2024)

Experiments:
[1] = MTT cytotoxicity to normal human lung fibroblast Wi-38 cell line; type: cell-based; conditions: Wi-38 normal lung fibroblast cells, mean ± SEM, read-out: percentage of Wi-38 viability
Protocol: Normal human lung fibroblast Wi-38 cell line was used to detect cytotoxicity of the studied compounds (Table S8). Wi-38 cell line was cultured in DMEM medium-contained 10% fetal bovine serum (FBS), seeded as 5x10^3 cells per well in 96-well cell culture plate and incubated at 37 °C in 5% CO2 incubator. After 24 h for cell attachment, serial concentrations of the synthetic compounds were incubated with Wi-38 cells for 72 h. Cell viability was assayed by MTT method (Mosmann, 1983). Twenty microliters of 5 mg/ml MTT (Sigma, USA) was added to each well and the plate was incubated at 37 °C for 3 h. Then MTT solution was removed, 100 µl DMSO was added and the absorbance of each well was measured with a microplate reader (BMG LabTech, Germany) at 570 nm.

PC-3 cells = assay: MTT assay anticancer activity, PC-3; type: cell-based; conditions: Homo sapiens, PC-3, 5 µM, mean ± SEM, read-out: growth inhibition percentage of PC-3
Source text: MTT method was done as described above.

CCRF-CEM = assay: NCI anticancer screening, Leukemia CCRF-CEM; type: cell-based; conditions: Homo sapiens, read-out: % Growth Inhibition (GI %)
Source text: (§1) The compound has been processed according to standard method NCI-60 Human Tumor Cell Lines Screen for organic compound at development therapeutic program (DTP). Requests for access to this national resource can be submitted online at: […]

HL-60(TB) = assay: NCI anticancer screening, Leukemia HL-60(TB); type: cell-based; conditions: Homo sapiens, read-out: % Growth Inhibition (GI %)
Source text: as §1

K-562 = assay: NCI anticancer screening, Leukemia K-562; type: cell-based; conditions: Homo sapiens, K562; K-562, 10 μM; read-out: % Growth Inhibition (GI %)
Source text: as §1

MOLT-4 = assay: NCI anticancer screening, Leukemia MOLT-4; type: cell-based; conditions: Homo sapiens; MOLT-4, 10 μM; read-out: % Growth Inhibition (GI %)
Source text: as §1

RPMI-8226 = assay: NCI anticancer screening, Leukemia RPMI-8226; type: cell-based; conditions: Homo sapiens; RPMI-8226, 10 μM; read-out: % Growth Inhibition (GI %)
Source text: as §1

SR = assay: NCI anticancer screening, Leukemia SR; type: cell-based; conditions: Homo sapiens, read-out: % Growth Inhibition (GI %)
Source text: as §1

A549/ATCC = assay: NCI anticancer screening, Non-Small Cell Lung Cancer A549/ATCC; type: cell-based; conditions: Homo sapiens, read-out: % Growth Inhibition (GI %)
Source text: as §1

EKVX = assay: NCI anticancer screening, Non-Small Cell Lung Cancer EKVX; type: cell-based; conditions: Homo sapiens, read-out: % Growth Inhibition (GI %)
Source text: as §1

HOP-62 = assay: NCI anticancer screening, Non-Small Cell Lung Cancer HOP-62; type: cell-based; conditions: Homo sapiens; HOP-62, 10 μM; read-out: % Growth Inhibition (GI %)
Source text: as §1

NCI-H460 = assay: NCI anticancer screening, Non-Small Cell Lung Cancer NCI-H460; type: cell-based; conditions: Homo sapiens; NCI-H460, 10 μM; read-out: % Growth Inhibition (GI %)
Source text: as §1

NCI-H522 = assay: NCI anticancer screening, Non-Small Cell Lung Cancer NCI-H522; type: cell-based; conditions: Homo sapiens; NCI-H522, 10 μM; read-out: % Growth Inhibition (GI %)
Source text: as §1

HCC-2998 = assay: NCI anticancer screening, Colon Cancer HCC-2998; type: cell-based; conditions: Homo sapiens; HCC-2998, 10 μM; read-out: % Growth Inhibition (GI %)
Source text: as §1

HCT-15 = assay: NCI anticancer screening, Colon Cancer HCT-15; type: cell-based; conditions: Homo sapiens; HCT-15, 10 μM; read-out: % Growth Inhibition (GI %)
Source text: as §1

KM12 = assay: NCI anticancer screening, Colon Cancer KM12; type: cell-based; conditions: Homo sapiens; KM12, 10 μM; read-out: % Growth Inhibition (GI %)
Source text: as §1

SW-620 = assay: NCI anticancer screening, Colon Cancer SW-620; type: cell-based; conditions: Homo sapiens; SW-620, 10 μM; read-out: % Growth Inhibition (GI %)
Source text: as §1

SF-539 = assay: NCI anticancer screening, CNS Cancer SF-539; type: cell-based; conditions: Homo sapiens; SF-539, 10 μM; read-out: % Growth Inhibition (GI %)
Source text: as §1

SNB-75 = assay: NCI anticancer screening, CNS Cancer SNB-75; type: cell-based; conditions: Homo sapiens; SNB-75, 10 μM; read-out: % Growth Inhibition (GI %)
Source text: as §1

LOX IMVI = assay: NCI anticancer screening, Melanoma LOX IMVI; type: cell-based; conditions: Homo sapiens, read-out: % Growth Inhibition (GI %)
Source text: as §1

MALME-3M = assay: NCI anticancer screening, Melanoma MALME-3M; type: cell-based; conditions: Homo sapiens, read-out: % Growth Inhibition (GI %)
Source text: as §1

M14 = assay: NCI anticancer screening, Melanoma M14; type: cell-based; conditions: Homo sapiens; M14, 10 μM; read-out: % Growth Inhibition (GI %)
Source text: as §1

MDA-MB-435 = assay: NCI anticancer screening, Melanoma MDA-MB-435; type: cell-based; conditions: Homo sapiens; MDA-MB-435, 10 μM; read-out: % Growth Inhibition (GI %)
Source text: as §1

SK-MEL-5 = assay: NCI anticancer screening, Melanoma SK-MEL-5; type: cell-based; conditions: Homo sapiens; SK-MEL-5, 10 μM; read-out: % Growth Inhibition (GI %)
Source text: as §1

UACC-257 = assay: NCI anticancer screening, Melanoma UACC-257; type: cell-based; conditions: Homo sapiens; UACC-257, 10 μM; read-out: % Growth Inhibition (GI %)
Source text: as §1

OVCAR-3 = assay: NCI anticancer screening, Ovarian Cancer OVCAR-3; type: cell-based; conditions: Homo sapiens; OVCAR-3, 10 μM; read-out: % Growth Inhibition (GI %)
Source text: as §1

OVCAR-4 = assay: NCI anticancer screening, Ovarian Cancer OVCAR-4; type: cell-based; conditions: Homo sapiens; OVCAR-4, 10 μM; read-out: % Growth Inhibition (GI %)
Source text: as §1

CAKI-1 = assay: NCI anticancer screening, Renal Cancer CAKI-1; type: cell-based; conditions: Homo sapiens; CAKI-1, 10 μM; read-out: % Growth Inhibition (GI %)
Source text: as §1

RXF 393 = assay: NCI anticancer screening, Renal Cancer RXF 393; type: cell-based; conditions: Homo sapiens; RXF 393, 10 μM; read-out: % Growth Inhibition (GI %)
Source text: as §1

SN12C = assay: NCI anticancer screening, Renal Cancer SN12C; type: cell-based; conditions: Homo sapiens, read-out: % Growth Inhibition (GI %)
Source text: as §1

UO-31 = assay: NCI anticancer screening, Renal Cancer UO-31; type: cell-based; conditions: Homo sapiens; UO-31, 10 μM; read-out: % Growth Inhibition (GI %)
Source text: as §1

MCF7 = assay: NCI anticancer screening, Breast Cancer MCF7; type: cell-based; conditions: Homo sapiens; MCF7, 10 μM; read-out: % Growth Inhibition (GI %)
Source text: as §1

MDA-MB-468 = assay: NCI anticancer screening, Breast Cancer MDA-MB-468; type: cell-based; conditions: Homo sapiens, read-out: % Growth Inhibition (GI %)
Source text: as §1

Row | SMILES | viability at 72 h, 5 µM [1] | inhibition at 5 µM (PC-3 cells) | inhibition at 10 µM (CCRF-CEM) | inhibition at 10 µM (HL-60(TB)) | inhibition at 10 µM (K-562) | inhibition at 10 µM (MOLT-4) | inhibition at 10 µM (RPMI-8226) | inhibition at 10 µM (SR) | inhibition at 10 µM (A549/ATCC) | inhibition at 10 µM (EKVX) | inhibition at 10 µM (HOP-62) | inhibition at 10 µM (NCI-H460) | inhibition at 10 µM (NCI-H522) | inhibition at 10 µM (HCC-2998) | inhibition at 10 µM (HCT-15) | inhibition at 10 µM (KM12) | inhibition at 10 µM (SW-620) | inhibition at 10 µM (SF-539) | inhibition at 10 µM (SNB-75) | inhibition at 10 µM (LOX IMVI) | further results
1 | O=C(c1nc2ccccc2[nH]1)[C@H]1[C@H](c2ccc(C(F)(F)F)cc2)C2CSCN2[C@]12C(=O)Nc1ccccc12 (stereo partly drawn) [Compound 6c, (3S,6′R)-6'-(1H-Benzo [d]imidazole-2-carbonyl)-7'-(4-(trifluoromethyl)phenyl)-3′,6′,7′,7a′-tetrahydro-1′H-spiro [indoline-3.5′-pyrrolo [1,2-c]thiazol]-2-one] | 59.9 ± 2.84% | 54.1 ± 1.35% | 95% | 108% | 83.1% | 82.7% | 72% | 85.6% | 97.1% | 87% | 89.5% | 66.8% | 87.7% | 99.6% | 88.9% | 71.8% | 84.1% | 91.6% | 72.9% | 88.7% | inhibition at 10 µM (MALME-3M): 94.9%; inhibition at 10 µM (M14): 83.3%; inhibition at 10 µM (MDA-MB-435): 88.3%; inhibition at 10 µM (SK-MEL-5): 94.2%; inhibition at 10 µM (UACC-257): 98.5%; inhibition at 10 µM (OVCAR-3): 87.7%; inhibition at 10 µM (OVCAR-4): 80.9%; inhibition at 10 µM (CAKI-1): 78.6%; inhibition at 10 µM (RXF 393): 90.1%; inhibition at 10 µM (SN12C): 90.7%; inhibition at 10 µM (UO-31): 55.4%; inhibition at 10 µM (MCF7): 77.7%; inhibition at 10 µM (MDA-MB-468): 91.6%; melting point: 185 to 187 °C
2 | O=C(c1nc2ccccc2[nH]1)[C@H]1[C@H](c2cccs2)C2CSCN2[C@]12C(=O)Nc1ccccc12 (stereo partly drawn) [Compound 6e, (3S,6′R)-6'-(1H-Benzo [d]imidazole-2-carbonyl)-7'-(thiophen-2-yl)-3′,6′,7′,7a′-tetrahydro-1′H-spiro [indoline-3.5′-pyrrolo [1,2-c]thiazol]-2-one] | 51.7 ± 1.28% | 58.2 ± 0.729% | 104% | 94.1% | 100% | 96.1% | 101% | 101% | 87.1% | 100% | 99.5% | 101% | 91.5% | 108% | 100% | 98.8% | 96.7% | 101% | 85.9% | 97.5% | inhibition at 10 µM (MALME-3M): 101%; inhibition at 10 µM (M14): 100%; inhibition at 10 µM (MDA-MB-435): 100%; inhibition at 10 µM (SK-MEL-5): 99%; inhibition at 10 µM (UACC-257): 93.4%; inhibition at 10 µM (OVCAR-3): 105%; inhibition at 10 µM (OVCAR-4): 93.9%; inhibition at 10 µM (CAKI-1): 89.6%; inhibition at 10 µM (RXF 393): 112%; inhibition at 10 µM (SN12C): 97.5%; inhibition at 10 µM (UO-31): 76%; inhibition at 10 µM (MCF7): 94.5%; inhibition at 10 µM (MDA-MB-468): 100%; melting point: 240 to 242 °C
3 | O=C(c1nc2ccccc2[nH]1)[C@H]1[C@H](c2ccc(F)cc2)C2CSCN2[C@]12C(=O)Nc1ccccc12 (stereo partly drawn) [Compound 6f, (3S,6′R)-6'-(1H-Benzo [d]imidazole-2-carbonyl)-7'-(4-fluorophenyl)-3′,6′,7′,7a′-tetrahydro-1′H-spiro [indoline-3.5′-pyrrolo [1,2-c]thiazol]-2-one] | 47.39 ± 0.092% | 46 ± 0.833% | 98.2% | 93.1% | 87.4% | 83.6% | 87.8% | 81.3% | 78.6% | 93.8% | 104% | 88.9% | 79.5% | 97% | 93.6% | 88.7% | 91.1% | 97.7% | 89.8% | 94.8% | inhibition at 10 µM (MALME-3M): 94.2%; inhibition at 10 µM (M14): 94.5%; inhibition at 10 µM (MDA-MB-435): 94.6%; inhibition at 10 µM (SK-MEL-5): 94.7%; inhibition at 10 µM (UACC-257): 83.9%; inhibition at 10 µM (OVCAR-3): 101%; inhibition at 10 µM (OVCAR-4): 83.2%; inhibition at 10 µM (CAKI-1): 90%; inhibition at 10 µM (RXF 393): 99.6%; inhibition at 10 µM (SN12C): 91.1%; inhibition at 10 µM (UO-31): 77%; inhibition at 10 µM (MCF7): 87.4%; inhibition at 10 µM (MDA-MB-468): 94.2%; melting point: 233 to 235 °C
4 | O=C(c1nc2ccccc2[nH]1)[C@H]1[C@H](c2ccc(Cl)cc2Cl)C2CSCN2[C@]12C(=O)Nc1ccccc12 (stereo partly drawn) [Compound 6g, (3S,6′R)-6'-(1H-Benzo [d]imidazole-2-carbonyl)-7'-(2,4-dichlorophenyl)-3′,6′,7′,7a′-tetrahydro-1′H-spiro [indoline-3.5′-pyrrolo [1,2-c]thiazol]-2-one] | 40 ± 1.1% | 54.5 ± 1.56% | 60.1% | 80.7% | 65.6% | 43% | 42.5% | 45.8% | 62% | 63.5% | 80.3% | 55.5% | 71.7% | 70.3% | 56% | 52.3% | 72.9% | 76.4% | 59.7% | 67.2% | inhibition at 10 µM (MALME-3M): 86.2%; inhibition at 10 µM (M14): 66.8%; inhibition at 10 µM (MDA-MB-435): 56%; inhibition at 10 µM (SK-MEL-5): 81.9%; inhibition at 10 µM (UACC-257): 74.4%; inhibition at 10 µM (OVCAR-3): 69.7%; inhibition at 10 µM (OVCAR-4): 57.6%; inhibition at 10 µM (CAKI-1): 36.9%; inhibition at 10 µM (RXF 393): 40.7%; inhibition at 10 µM (SN12C): 63%; inhibition at 10 µM (UO-31): 39.7%; inhibition at 10 µM (MCF7): 51%; inhibition at 10 µM (MDA-MB-468): 69.2%; melting point: 235 to 237 °C
